We go through 23 compounds from patent US10065972B2, “Bicyclic or tricyclic heterocyclic compound” (MITSUBISHI TANABE PHARMA CORPORATION, priority 2014, dated 2018).

Chain of human recombinant KAT-II (Q8N5Z0 30-425): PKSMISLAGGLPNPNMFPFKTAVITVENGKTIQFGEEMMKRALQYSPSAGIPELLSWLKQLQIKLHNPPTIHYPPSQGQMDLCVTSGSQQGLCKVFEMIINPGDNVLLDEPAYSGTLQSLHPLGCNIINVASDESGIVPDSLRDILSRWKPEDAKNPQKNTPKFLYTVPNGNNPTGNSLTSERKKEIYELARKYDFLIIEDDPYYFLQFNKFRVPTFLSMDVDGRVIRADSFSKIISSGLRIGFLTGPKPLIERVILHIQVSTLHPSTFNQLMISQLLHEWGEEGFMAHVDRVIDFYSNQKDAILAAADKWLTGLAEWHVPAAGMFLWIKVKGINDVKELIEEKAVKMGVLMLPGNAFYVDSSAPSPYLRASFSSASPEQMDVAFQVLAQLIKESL

The experiment has as its target human recombinant KAT-II (Homo sapiens (Human), UniProt Q8N5Z0). Description: KAT-II inhibitory test. It is filed as biochemical. The settings on record: 3.0 μmol/L kynurenine, 37° C., 1 hr, pH 8.0; kynurenic acid quantified by HPLC. The essentials:
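Kynurenic acid formation was measured by HPLC fluorescence (354 nm excitation, 460 nm emission) against an external standard curve. The substrate was 3.0 μmol/L kynurenine with 10 μmol/L pyridoxal phosphate, at pH 8.0 Tris-acetate, 37 °C for 1 hr, using 2.0 ng/μL amylose-purified N-terminal His/MBP-tagged recombinant enzyme. Duplicate measurements were made per concentration.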
For `C[C@@H]1CN(C)Cc2nc3sc(N4CCC[C@@H]4C(=O)NCc4ccccc4)nc3c(=O)n21` [Example 601, (R)-N-benzyl-1-[(R)-6,8-dimethyl-10-oxo-5,7,8,10-tetrahydro-6H-pyrazino[1,2-a][1,3]thiazolo[5,4-d]pyrimidin-2-yl]pyrrolidine-2-carboxamide], the IC50 worked out at 140 nM. As for `CN1CCn2c1nc1sc(N3CCC[C@@H]3C(=O)NCc3ccccc3)nc1c2=O` [Example 602, (R)-N-benzyl-1-(5-methyl-9-oxo-5,6,7,9-tetrahydroimidazo[1,2-a][1,3]thiazolo[5,4-d]pyrimidin-2-yl)pyrrolidine-2-carboxamide], the IC50 came out at 31 nM. Then `O=C(NCc1ccccc1)[C@H]1CCCN1c1nc2c(=O)n3c(nc2s1)C(F)(F)CCC3` [Example 605, (R)-N-benzyl-1-(5,5-difluoro-10-oxo-5,7,8,10-tetrahydro-6H-pyrido[1,2-a][1,3]thiazolo[5,4-d]pyrimidin-2-yl)pyrrolidine-2-carboxamide], with 8.2 nM; and `CC(C)(O)c1nc2sc(N3CCC[C@@H]3C(=O)NCc3ccccc3)nc2c(=O)[nH]1` [Example 606, (R)-N-benzyl-1-[5-(2-hydroxypropan-2-yl)-7-oxo-6,7-dihydro[1,3]thiazolo[5,4-d]pyrimidin-2-yl]pyrrolidine-2-carboxamide], with 7.6 nM. Then `Cn1c(-c2ccccc2)nc2sc(N3CC[C@@H](N)[C@@H]3C(=O)NCc3ccccc3)nc2c1=O` [Example 611, (2R,3R)-3-amino-N-benzyl-1-(6-methyl-7-oxo-5-phenyl-6,7-dihydro[1,3]thiazolo[5,4-d]pyrimidin-2-yl)pyrrolidine-2-carboxamide], with 570 nM; and `CCc1nn(CC)c(=O)c2nc(N3CCC[C@@H]3C(=O)NCc3ccccc3)sc12` [Example 612, (R)-N-benzyl-1-(5,7-diethyl-4-oxo-4,5-dihydro[1,3]thiazolo[4,5-d]pyridazin-2-yl)pyrrolidine-2-carboxamide], with 52 nM. Then `CCc1nn(C2CCOCC2)c(=O)c2nc(N3CCC[C@@H]3C(=O)NCc3ccccc3)sc12` [Example 613, (R)-N-benzyl-1-[7-ethyl-4-oxo-5-(tetrahydro-2H-pyran-4-yl)-4,5-dihydro[1,3]thiazolo[4,5-d]pyridazin-2-yl]pyrrolidine-2-carboxamide], with 22 nM.

Take `CCn1nc(C2CC2)c2sc(N3CCC[C@@H]3C(=O)NCc3ccccc3)nc2c1=O` [Example 614, (R)-N-benzyl-1-(7-cyclopropyl-5-ethyl-4-oxo-4,5-dihydro[1,3]thiazolo[4,5-d]pyridazin-2-yl)pyrrolidine-2-carboxamide]: the IC50 came to 16 nM. Next, `Cc1nn(C2CCCCC2)c(=O)c2nc(N3CCC[C@@H]3C(=O)NCc3ccccc3)sc12` [Example 616, (R)-N-benzyl-1-(5-cyclohexyl-7-methyl-4-oxo-4,5-dihydro[1,3]thiazolo[4,5-d]pyridazin-2-yl)pyrrolidine-2-carboxamide]: 73 nM; `O=C(NCc1ccccc1)[C@H]1CCCN1c1nc2c(=O)[nH]cc(C(F)(F)F)c2s1` [Example 617, (R)-N-benzyl-1-(4-oxo-7-trifluoromethyl-4,5-dihydro[1,3]thiazolo[4,5-c]pyridin-2-yl)pyrrolidine-2-carboxamide]: 240 nM. Then `O=C(NCc1ccccc1)[C@H]1CCCN1c1nc2c(=O)[nH]c(C3CC3)c(Cl)c2s1` [Example 623, (R)-N-benzyl-1-(7-chloro-6-cyclopropyl-4-oxo-4,5-dihydro[1,3]thiazolo[4,5-c]pyridin-2-yl)pyrrolidine-2-carboxamide], with 22 nM; and `O=C(NCc1ccccc1)[C@H]1CCCN1c1nc2c(=O)[nH]c(-c3ccccc3F)c(Cl)c2s1` [Example 624, (R)-N-benzyl-1-[7-chloro-6-(2-fluorophenyl)-4-oxo-4,5-dihydro[1,3]thiazolo[4,5-c]pyridin-2-yl]pyrrolidine-2-carboxamide], with 15 nM; and `CC(C)(F)c1[nH]c(=O)c2nc(N3CCC[C@@H]3C(=O)NCc3ccccc3)sc2c1Cl` [Example 626, (R)-N-benzyl-1-[7-chloro-6-(2-fluoropropan-2-yl)-4-oxo-4,5-dihydro[1,3]thiazolo[4,5-c]pyridin-2-yl]pyrrolidine-2-carboxamide], with 15 nM. In the case of `CCOC1(c2cc3sc(N4CCC[C@@H]4C(=O)NCc4ccccc4)nc3c(=O)[nH]2)CC1` [Example 629, (R)-N-benzyl-1-[6-(1-ethoxycyclopropyl)-4-oxo-4,5-dihydro[1,3]thiazolo[4,5-c]pyridin-2-yl]pyrrolidine-2-carboxamide], the IC50 was determined as 47 nM.

For the compound `Cn1c(C(F)(F)F)cc2sc(N3CCC[C@@H]3C(=O)NCc3ccccc3)nc2c1=O` [Example 631, (R)-N-benzyl-1-(5-methyl-4-oxo-6-trifluoromethyl-4,5-dihydro[1,3]thiazolo[4,5-c]pyridin-2-yl)pyrrolidine-2-carboxamide], the IC50 was 55 nM.

In the case of `CCCc1cc(=O)n2nc(N3CCCC[C@@H]3C(=O)NCc3ccccc3)sc2n1` [Example 635, (R)-N-benzyl-1-(5-oxo-7-propyl-5H-[1,3,4]thiadiazolo[3,2-a]pyrimidin-2-yl) piperidine-2-carboxamide], the half-maximal inhibitory concentration (IC50) came out at 970 nM.

Consider `Cc1cc(=O)n2nc(N3CCC[C@@H]3C(=O)NC(C)(C)c3ccccc3)sc2n1` [Example 636, (R)-1-(7-methyl-5-oxo-5H-[1,3,4]thiadiazolo[3,2-a]pyrimidin-2-yl)-N-(1-methyl-1-phenylethyl)pyrrolidine-2-carboxamide], for which the IC50 stood at 1500 nM. Turning to `O=C(NCc1ccccc1)[C@H]1CCCN1c1nn2c(=O)cc(-c3ccccc3)nc2s1` [Example 638, (R)-N-benzyl-1-(5-oxo-7-phenyl-5H-[1,3,4]thiadiazolo[3,2-a]pyrimidin-2-yl)pyrrolidine-2-carboxamide], the half-maximal inhibitory concentration (IC50) came out at 29 nM.

Regarding `O=C(NCc1ccccc1)[C@H]1CCCN1c1nn2c(=O)c3c(nc2s1)CCCC3` [Example 639, (R)-N-benzyl-1-(5-oxo-6,7,8,9-tetrahydro-5H-[1,3,4]thiadiazolo[2,3-b]quinazolin-2-yl)pyrrolidine-2-carboxamide], the 50% inhibitory concentration (IC50) was found to be 49 nM.

Turning to `O=C(NCc1ccccc1)[C@H]1CCCN1c1nn2c(=O)cc(C(F)(F)F)nc2s1` [Example 642, (R)-N-benzyl-1-(5-oxo-7-trifluoromethyl-5H-[1,3,4]thiadiazolo[3,2-a]pyrimidin-2-yl)pyrrolidine-2-carboxamide], the 50% inhibitory concentration (IC50) came out at 78 nM.

Take `CCc1cc(=O)n2nc(N3CCOC[C@@H]3C(=O)NCc3ccccc3)sc2n1` [Example 645, (R)-N-benzyl-4-(7-ethyl-5-oxo-5H-[1,3,4]thiadiazolo[3,2-a]pyrimidin-2-yl)morpholine-3-carboxamide]: the IC50 is 1600 nM.

For the compound `Cc1nc2sc(N3CCC[C@@H]3C(=O)NCc3ccccc3)nn2c(=O)c1C(C)C` [Example 647, (R)-N-benzyl-1-[7-methyl-5-oxo-6-(propan-2-yl)-5H-[1,3,4]thiadiazolo[3,2-a]pyrimidin-2-yl]pyrrolidine-2-carboxamide], the half-maximal inhibitory concentration (IC50) was determined as 58 nM. Next, `Cc1nc2sc(N3CCC[C@@H]3C(=O)NCc3ccccc3)nn2c(=O)c1-c1ccccc1` [Example 648, (R)-N-benzyl-1-(7-methyl-5-oxo-6-phenyl-5H-[1,3,4]thiadiazolo[3,2-a]pyrimidin-2-yl)pyrrolidine-2-carboxamide]: 46 nM.

Broadly, the IC50 is the midpoint of a concentration-inhibition curve.
